Patent US20230270781A1, “TREATMENT OR PREVENTION OF PRO-INFLAMMATORY DISEASES OR CONDITIONS USING INDUCED REGULATORY T (ITREG) CELLS” (RAPA THERAPEUTICS, LLC, priority 2020, published 2023)

Tests used:
Assay type in all cases: cell-based
[1] = tested on: human CD4+ and CD8+ T cells; test: RNA expression analysis (Luminex Quantigene) after 3-day de-differentiation culture; details: relative to control Th1/Tc1 culture, temsirolimus 1 µM
Procedure: At the end of the de-differentiation interval, cells were harvested, RNA was isolated, and RNA expression analysis was performed by Luminex Quantigene method. All results shown represent relative RNA expression, with results normalized to a value of 1.0 for the Th1/Tc1 control culture.

[2] = tested on: human CD4+ and CD8+ T cells; test: Western blot for Raptor, Rictor, p70S6K, SGK1 after 3-day de-differentiation culture; details: relative to control culture without the three inhibitors; temsirolimus 1 µM, Vitamin D 0.03-1.0 nM, Daclizumab 50 µg/ml
Excerpt: After the 3-day culture interval, the T cells were harvested, and protein was isolated and subjected to western blot analysis for the mTORC1 complex protein, Raptor; the mTORC2 complex protein, Rictor; the post-mTORC1 protein p70S6K; the post-mTORC2 protein, SGK1; and the housekeeping gene, GAPDH.

[3] = tested on: human CD4+ and CD8+ T cells; test: Western blot for autophagy-related molecule p62 after 3-day de-differentiation culture; details: 3-day culture, 1:3 bead-to-T cell ratio; temsirolimus 1.0 or 0.3 µM, Vitamin D 0.01-1.0 nM, Daclizumab 50 µg/ml
Excerpt: After the 3-day culture interval, the T cells were harvested, and protein was isolated and subjected to western blot analysis for the autophagy-related gene, p62, and the housekeeping gene, Actin.

[4] = tested on: human CD4+ and CD8+ T cells; test: Western blot for mTORC1 complex protein Raptor after 3-day de-differentiation culture
Excerpt: After the 3-day culture interval, the T cells were harvested, and protein was isolated and subjected to western blot analysis for the mTORC1 complex protein, Raptor, and the housekeeping gene, Actin.

[5] = tested on: human CD4+ and CD8+ T cells; test: T cell yield at day 13 after de-differentiation interval and re-stimulation without inhibitors; details: columns #5 and #6; Vitamin D reduced to 0.01 nM or increased to 1.0 nM
Procedure: After 10 days (13 days of total culture), the T cells were harvested, enumerated, and evaluated by flow cytometry. FIG. 8 illustrates the effect of culture components during the de-differentiation interval on subsequent T cell yield (at day 13 of culture). […] After the 3-day interval, media was exchanged to fresh X-Vivo 20 without inhibitors, high-level co-stimulation was provided (3:1 bead-to-T cell ratio), and the T cell growth cytokines IL-2 (100 IU/ml) and IL-7 (10 ng/ml) were added. At day 13 of culture, viable T cells were enumerated and the overall yield is shown relative to day 0 input number.

[6] = tested on: human CD4+ and CD8+ T cells; test: Luminex cytokine analysis of de-differentiated T cells cultured in polarization-neutral media; details: Vitamin D concentration during the de-differentiation interval
Procedure: FIGS. 11A-11D depict the inflammatory Th1/Th17 cytokine analysis of cultured de-differentiated T cells in polarization-neutral media. […] After 3-days, the de-differentiated T cells were co-stimulated (typical bead-to-T cell ratio of 3:1) in media supplemented with the T cell growth cytokines rhu IL-2 (100 IU/ml) and rhu IL-7 (10 ng/ml), which are not potent in terms of inducing T cell polarization. After 10 days in culture (total, day 13 of culture), the T cells were harvested, washed, and re-stimulated with 3/28 beads (3:1 ratio) for 24 hr; the resultant supernatant was harvested and tested for cytokine content by Luminex multi-analyte method. All results shown are expressed as cytokine level in pg per ml per 1 × 10^6 cells/ml/24 hr.
FIGS. 12A-12D depicts the IL-2 and Th2-type cytokine analysis of cultured de-differentiated T cells in polarization-neutral media. […] After 3-days, the de-differentiated T cells were co-stimulated (typical bead-to-T cell ratio of 3:1) in media supplemented with the T cell growth cytokines rhu IL-2 (100 IU/ml) and rhu IL-7 (10 ng/ml), which are not potent in terms of inducing T cell polarization. […] All results shown are expressed as cytokine level in pg per ml per 1 × 10^6 cells/ml/24 hr.

[7] = 3-day culture, bead-to-T cell ratio 1:3, Vitamin D 0.1 or 1.0 nM

C=C1/C(=C\C=C2/CCC[C@]3(C)[C@@H]([C@H](C)CCCC(C)(C)O)CC[C@@H]23)C[C@@H](O)C[C@@H]1O [Vitamin D, 1,25-vitamin D]
Granzyme B RNA expression [1, 7]: reduction | IFN-gamma RNA expression [1, 7]: reduction | IL-10 RNA expression [1, 7]: reduction | IL-7 receptor alpha RNA expression ([1]; Vitamin D 1.0 nM): not Vitamin D alone | KLF4 RNA expression ([1]; Vitamin D 1.0 nM): neither temsirolimus nor Vitamin D alone increased | KLF10 RNA expression ([1]; Vitamin D 1.0 nM): does not act alone to up-regulate | HIF-1-α RNA expression ([1]; Vitamin D 0.1 to 1.0 nM): did not down-regulate | Nanog transcription factor RNA expression ([1]; Vitamin D 0.1 to 1.0 nM): does not act alone to up-regulate | STAT1 RNA expression ([1]; Vitamin D 0.1 to 1.0 nM): acts alone to beneficially down-regulate | T-BET RNA expression ([1]; Vitamin D 0.1 to 1.0 nM): acts alone to beneficially down-regulate | Rictor expression (western blot) [2]: effective | p62 expression (western blot, normalized by actin) [3]: increased p62 expression | Raptor inhibition at Vitamin D 0.01 nM ([4]; Vitamin D level reduced to 0.01 nM): sub-optimal Raptor inhibition | Raptor expression at Vitamin D 0.3 nM ([4]; culture 7, 0.3 nM Vitamin D, versus 0.1 nM): higher level of Raptor expression | T cell yield at day 13 with Vitamin D 0.01 nM or 1.0 nM [5]: very low yield | IFN-γ and TNF-α levels with Vitamin D 0.01 nM relative to 0.1 nM [6]: somewhat higher levels
